What was measured:
GSC23 and GSC262 cells [1] = assay: Tumorsphere formation assay (GSC self-renewal); format: cell-based, human; settings: GSC23 and GSC262 with TFPI2 OE plasmid; JNK-IN-8 10 nM, WP1066 20 nM
Protocol: The tumorsphere formation assay was performed (Ref. 79; incorporated by reference in its entirety). GSCs were treated with different concentrations of recombinant TFPI2 protein for 24 hrs with or without inhibition of JNK or STAT3, or modified with TFPI21 KO, knockdown or overexpression. After treatment or genetic modifications, cells were centrifuged at 1500 rpm for 5 min and resuspended in the plain cell culture media without additional supplements. Cells were then seeded into a 96-wells plate at 100 cells/well. The number of tumorspheres in each well was imaged and quantified after 10 days.

GSC23 and GSC262 cells [2] = assay: CFSE proliferation analysis of GSCs; format: cell-based, human; settings: GSC23 and GSC262 with TFPI2 OE plasmid; JNK-IN-8 10 nM, WP1066 20 nM
Protocol: Cell proliferation was assessed using the CellTrace CFSE Cell Proliferation Kit (Invitrogen, #C34554). 10^6 cells were harvested and incubated with CFSE working solution (1:1000) for 20 min at 37° C. The staining was stopped by adding complete cell culture media. After washing, cells were continuously cultured for 5 days in the dark. At the end of the incubation, cells were collected by spinning down at 1500 rpm for 5 min. The cell pellet was resuspended in cell staining buffer for flow cytometry analysis. The percentage of CFSE positive peaks over the undivided peak (generation 0) was analyzed using the ImageJ software.

GSC23 and GSC262 cells [3] = assay: Apoptosis analysis of GSCs (Apotracker/PI flow cytometry); format: cell-based, human; settings: GSC23 and GSC262 with TFPI2 OE plasmid; JNK-IN-8 10 nM, WP1066 20 nM
Protocol: Cell apoptosis was evaluated using Apotracker Green (BioLegend, #427402) (Ref. 78; incorporated by reference in its entirety). 10^5 cells were collected and stained with Apotracker (1:10 dilution) in […] cell staining buffer. […] propidium iodide (PI) solution (BioLegend, #421301) was added for labeling late apoptotic and necrotic cells. After washing with PBS twice, FITC and PI signals were analyzed in BD FACSymphony flow cytometer.

JNK = assay: Immunoblot for P-JNK and JNK in GSCs; format: cell-based, human; settings: GSC23 and GSC262, TFPI2 OE or TFPI2 recombinant protein 20 ng/ml; WP1066 20 nM
Protocol: (§1) The protein expression in cells was determined by western blotting analysis (Ref. 61; incorporated by reference in its entirety). Cells were homogenized in RIPA lysis buffer containing phosphatase/protease cocktail inhibitors (Cell Signaling Technology, #5870). The protein concentration was determined by BCA Protein Assay Kit (Thermo Fisher Scientific, #P123225). Protein solution was mixed with the Leammli sample buffer and heated at 95° C. before loading to SurePAGE gels (GenScript, #M00653). The gels were run at a constant voltage of 80 V and then transferred to 0.2 μm nitrocellulose membrane (Bio-Rad, #1620112) using the Trans-Blot Turbo system (Bio-Rad) with a preprogrammed standard protocol for 30 min. Nitrocellulose membrane was incubated with 5% dry milk to block any unspecific staining. […]

GSC23 tumor = assay: Survival of nude mice implanted with GSC23 expressing TFPI2 overexpression plasmid; format: in vivo, mouse; settings: 30 mg/kg body weight, i.p., every day, on day 7
Protocol: Female C57BL/6 (#0000664), nude mice (#007850), and B6.12952(C)-Stat6tm1Gru/J mice (STAT6-KO; #005977) at 6 weeks of age were purchased from the Jackson Laboratory. Mice were grouped by 5 animals and maintained in a pathogen-free IVC System (San Diego, CA) for a week before the experiment. All animal experiments were performed with the approval of the Institutional Animal Care and Use Committee (IACUC) at Northwestern University. The intracranial xenograft tumor models were established (Refs. 11, 61; incorporated by reference in their entireties). Ketamine (100 mg/kg) and xylazine (20 mg/kg) were used for anesthetizing mice through intraperitoneal injection. Then a dental drill was used to open a small hole in the skull 1.2 mm anterior and 3.0 mm lateral to the bregma. A total volume of […] cells in FBS-free DMEM was injected into the right caudate nucleus 3 mm below the surface of the brain using a […] Hamilton syringe with an unbeveled 30-gauge needle. Total three doses of 20 mg/kg meloxicam were administrated before and after surgery through subcutaneous injection. After cancer cell implantation, mice were monitored for recording survival. Mice with neurological deficits or moribund appearance were sacrificed. […]

STAT3 = assay: Immunoblot for P-STAT3 and STAT3 in GSCs; format: cell-based, human; settings: GSC23 and GSC262, TFPI2 OE or TFPI2 recombinant protein 20 ng/ml; JNK-IN-8 10 nM
Protocol: as §1

005 GSC and CT2A tumors = assay: Survival of C57BL/6 mice implanted with 005 GSCs or CT2A cells; format: in vivo, mouse; settings: for survival of mice bearing 005 GSC and CT2A tumors, combination with anti-PD1 therapy: anti-PD1 10 mg/kg i.p. on days 11, 14 and 17, MK-0429 30 mg/kg or AS1517499 10 mg/kg i.p. every other day
Protocol: Female C57BL/6 (#0000664), nude mice (#007850), and B6.12952(C)-Stat6tm1Gru/J mice (STAT6-KO; #005977) at 6 weeks of age were purchased from the Jackson Laboratory. Mice were grouped by 5 animals and maintained in a pathogen-free IVC System (San Diego, CA) for a week before the experiment. All animal experiments were performed with the approval of the Institutional Animal Care and Use Committee (IACUC) at Northwestern University. The intracranial xenograft tumor models were established (Refs. 11, 61; incorporated by reference in their entireties). Ketamine (100 mg/kg) and xylazine (20 mg/kg) were used for anesthetizing mice through intraperitoneal injection. Then a dental drill was used to open a small hole in the skull 1.2 mm anterior and 3.0 mm lateral to the bregma. A total volume of […] cells in FBS-free DMEM was injected into the right caudate nucleus 3 mm below the surface of the brain using a […] Hamilton syringe with an unbeveled 30-gauge needle. Total three doses of 20 mg/kg meloxicam were administrated before and after surgery through subcutaneous injection. After cancer cell implantation, mice were monitored for recording survival. Mice with neurological deficits or moribund appearance were sacrificed. Following the transcardiac perfusion with PBS and 4% paraformaldehyde (PFA), brains were removed and fixed in 4% PFA, and were processed for paraffin-embedded blocks or cryosectioning.

SMILES | self-renewal effect of increasing cellular TFPI2 in GSCs (tumorspheres) (GSC23 and GSC262 cells [1]) | proliferation effect of increasing cellular TFPI2 in GSCs (GSC23 and GSC262 cells [2]) | apoptotic effect of increasing cellular TFPI2 in GSCs (GSC23 and GSC262 cells [3]) | TFPI2-induced JNK activation (P-JNK) (JNK) | shortening of survival by TFPI2 overexpression in GSC23 tumor-bearing mice (GSC23 tumor) | TFPI2-induced STAT3 activation (P-STAT3) (STAT3) | survival of mice bearing 005 GSC and CT2A tumors, combination with anti-PD1 therapy (005 GSC and CT2A tumors) | survival of mice implanted with 005 GSCs and CT2A cells, inhibitor alone (005 GSC and CT2A tumors; MK-0429 30 mg/kg or AS1517499 10 mg/kg, i.p., every other day, on day 7, Cilengitide dose not given)
C[C@H](NC(=O)/C(C#N)=C/c1cccc(Br)n1)c1ccccc1 [WP1066] | negated | negated | negated | no effect | abolished |  |  | 
Cc1cc(NC(=O)c2cccc(NC(=O)/C=C/CN(C)C)c2)ccc1Nc1nccc(-c2cccnc2)n1 [JNK-IN-8] | negated | negated | negated |  | abolished | blocked |  | 
COc1ccc([C@H](CC(=O)O)N2CCN(CCCc3ccc4c(n3)NCCC4)C2=O)cn1 [MK-0429] |  |  |  |  |  |  | synergized | 
CC(C)[C@H]1C(=O)N[C@@H](CCCN=C(N)N)C(=O)NCC(=O)N[C@@H](CC(=O)O)C(=O)N[C@H](Cc2ccccc2)C(=O)N1C [Cilengitide] |  |  |  |  |  |  | enhanced the efficacy | significantly extended the survival

Reference: US20250188457A1, “COMPOSITIONS AND METHODS FOR THE TREATMENT OF GLIOBLASTOMA BY INHIBITION OF THE TFPI2-CD51-STAT6 SIGNALING AXIS” (Northwestern University, priority 2023, published 2025)
